Assay results taken from US20230340011A1 (Asteroid Therapeutics, priority 2022, published 2023).
pEC50, pIC50: −log10 of the molar value.

Legend:
SREBP-2 = SREBP-2 (Homo sapiens (Human), UniProt Q12772); assay: In vitro assay SREBP-2: PathHunter U2OS SREBP-2 Nuclear Translocation Cell Line, U18666A-stimulated; type: cell-based; conditions: PathHunter U2OS SREBP-2 nuclear translocation cells, U18666A 10 μM, overnight (16 hours)
LXRβ = LXRβ (Homo sapiens (Human), UniProt P55055); assay: In vitro assay LXRβ: PathHunter NHR CHO cells, LXRβ / Steroid Receptor Co-activator Peptide enzyme fragment complementation; type: cell-based; conditions: PathHunter NHR CHO cells, full-length human LXRβ and SRCP, chemiluminescent signal; read-out: LXRβ PPI
LXRβ, sequence (P55055 whole entry, the tested form may be a part): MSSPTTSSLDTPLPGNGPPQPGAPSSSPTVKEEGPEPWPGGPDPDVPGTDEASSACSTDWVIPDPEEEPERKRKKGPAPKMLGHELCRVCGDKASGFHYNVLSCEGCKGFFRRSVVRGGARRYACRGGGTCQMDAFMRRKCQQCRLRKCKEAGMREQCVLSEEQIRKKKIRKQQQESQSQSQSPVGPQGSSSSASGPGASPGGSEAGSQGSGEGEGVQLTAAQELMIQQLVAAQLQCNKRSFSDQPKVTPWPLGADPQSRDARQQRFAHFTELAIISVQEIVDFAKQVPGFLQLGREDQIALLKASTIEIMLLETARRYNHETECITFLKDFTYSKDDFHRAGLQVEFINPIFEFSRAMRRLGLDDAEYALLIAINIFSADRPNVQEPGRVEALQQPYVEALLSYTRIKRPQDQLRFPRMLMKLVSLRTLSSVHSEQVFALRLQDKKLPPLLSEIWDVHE
How it was run: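 Co-activator recruitment measured by chemiluminescence after signal generation. The CHO line carries full-length human LXRβ tagged with ProLink and an SRCP–enzyme acceptor fusion in the nucleus; cells sat overnight at 37° C before testing, in charcoal-dextran filtered serum medium with 1% final vehicle.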

| SMILES | pIC50 (SREBP-2) | pEC50 (LXRβ) |
| --- | --- | --- |
| CCN(C)C(=O)OC[C@@H](C)[C@H]1CC[C@H]2[C@@H]3CC=C4C[C@@H](O)CC[C@]4(C)[C@H]3CC[C@]12C [Example 352, (2S)-2-[(1R,3aS,3bS,7S,9aR,9bS,11aS)-7-hydroxy-9a,11a-dimethyl-1H,2H,3H,3aH,3bH,4H,6H,7H,8H,9H,9aH,9bH,10H,11H,11aH-cyclopenta[a]phenanthren-1-yl]propyl N-ethyl-N-methylcarbamate] | > 6.60 | 5.00 to 6.00 |
| C[C@H](CCC(=O)N1CCN(c2ccnc(N)n2)CC1)[C@H]1CC[C@H]2[C@@H]3CC=C4C[C@@H](O)CC[C@]4(C)[C@H]3CC[C@]12C [Example 560, (R)-1-(4-(2-aminopyrimidin-4-yl)piperazin-1-yl)-4-((3S,8S,9S,10R,13R,14S,17R)-3-hydroxy-10,13-dimethyl-2,3,4,7,8,9,10,11,12,13,14,15,16,17-tetradecahydro-1H-cyclopenta[a]phenanthren-17-yl)pentan-1-one] | > 6.60 | < 5.00 |
| C[C@H](CCC(=O)N1CC2(CC(O)C2)C1)[C@H]1CC[C@H]2[C@@H]3CC=C4C[C@@H](O)CC[C@]4(C)[C@H]3CC[C@]12C [Example 100, (R)-4-((3S,8S,9S,10R,13R,14S,17R)-3-hydroxy-10,13-dimethyl-2,3,4,7,8,9,10,11,12,13,14,15,16,17-tetradecahydro-1H-cyclopenta[a]phenanthren-17-yl)-1-(6-hydroxy-2-azaspiro[3.3]heptan-2-yl)pentan-1-one] | > 6.60 | < 5.00 |
| C[C@H](CCC(=O)N1CCC2(CCCO2)CC1)[C@H]1CC[C@H]2[C@@H]3CC=C4C[C@@H](O)CC[C@]4(C)[C@H]3CC[C@]12C [Example 88, (R)-4-((3S,8S,9S,10R,13R,14S,17R)-3-hydroxy-10,13-dimethyl-2,3,4,7,8,9,10,11,12,13,14,15,16,17-tetradecahydro-1H-cyclopenta[a]phenanthren-17-yl)-1-(1-oxa-δ-azaspiro[4.5]decan-δ-yl)pentan-1-one] | > 6.60 | < 5.00 |
| C[C@H](CCC(=O)N1CCC(O)(C2CC2)CC1)[C@H]1CC[C@H]2[C@@H]3CC=C4C[C@@H](O)CC[C@]4(C)[C@H]3CC[C@]12C [Example 193, (R)-1-(4-cyclopropyl-4-hydroxypiperidin-1-yl)-4-((3S,8S,9S,10R,13R,14S,17R)-3-hydroxy-10,13-dimethyl-2,3,4,7,8,9,10,11,12,13,14,15,16,17-tetradecahydro-1H-cyclopenta[a]phenanthren-17-yl)pentan-1-one] | > 6.60 | > 6.60 |
| C[C@H](CCc1cncnc1)[C@H]1CC[C@H]2[C@@H]3CC=C4C[C@@H](O)CC[C@]4(C)[C@H]3CC[C@]12C [Example 171, (3S,8S,9S,10R,13R,14S,17R)-10,13-dimethyl-17-((R)-4-(pyrimidin-5-yl)butan-2-yl)-2,3,4,7,8,9,10,11,12,13,14,15,16,17-tetradecahydro-1H-cyclopenta[a]phenanthren-3-ol] | > 6.60 | < 5.00 |
| C[C@H](OC(=O)C(=O)N1CCC1)[C@H]1CC[C@H]2[C@@H]3CC=C4C[C@@H](O)CC[C@]4(C)[C@H]3CC[C@]12C [Example 155, (1S)-1-[(1S,3aS,3bS,7S,9aR,9bS,11aS)-7-hydroxy-9a,11a-dimethyl-1H,2H,3H,3aH,3bH,4H,6H,7H,8H,9H,9aH,9bH,10H,11H,11aH-cyclopenta[a]phenanthren-1-yl]ethyl 2-(azetidin-1-yl)-2-oxoacetate] | 5.00 to 6.00 | < 5.00 |
| C[C@H](CCC(=O)N1OC(C)(C)[C@H]2COC[C@H]21)[C@H]1CC[C@H]2[C@@H]3CC=C4C[C@@H](O)CC[C@]4(C)[C@H]3CC[C@]12C [Example 49, (R)-1-((3aR,6aS)-3,3-dimethyltetrahydro-1H,3H-furo[3,4-c]isoxazol-1-yl)-4-((3S,8S,9S,10R,13R,14S,17R)-3-hydroxy-10,13-dimethyl-2,3,4,7,8,9,10,11,12,13,14,15,16,17-tetradecahydro-1H-cyclopenta[a]phenanthren-17-yl)pentan-1-one] | 6.00 to 6.60 | 6.00 to 6.60 |
